According to article PMC12649290 (Journal of Clinical Pharmacology, 2025):

Legend:
[1] = Population pharmacokinetic (popPK) model developed on OSIBOOST trial plasma concentrations (NONMEM); format: in vivo, human; conditions: for CL/F, Population Estimate (RSE%) / V/F, Population Estimate (RSE%): allometrically scaled on bodyweight of 70 kg; for CL/F, Population Estimate (RSE%): exponent 0.75; for V/F, Population Estimate (RSE%): exponent 1; for CL/F, Bootstrap Median / V/F, Bootstrap Median: non-parametric bootstrap n = 1000
Protocol: The data used in this study were obtained from the OSIBOOST clinical trial (NCT03858491).[15] The trial was approved by an independent medical ethics committee (METC19‐013) and was conducted in accordance with the 1964 Helsinki declaration (and its amendments). All patients provided written informed consent. Patients were included from one academic medical center and a specialized tertiary referral center in the Netherlands (the Maastricht University Medical Centre and the Antoni van Leeuwenhoek hospital). […] After 21 days of concomitant treatment with cobicistat (to reach steady state), PK samples (pre‐dose, 0.5‐1.5 h, 2.5‐3.5 h, 7‐8 h) of the concomitant therapy were collected.
PK data were analyzed with NONMEM version 7.4.4, Perl‐speaks‐NONMEM (PsN) version 5.4.0, R version 4.4.2, and Rstudio version 2024.09.0. The packages xpose, tidyvpc, mrgsolve, and ggplot2 in R were used for plotting and simulations.
A base popPK model was developed with the data from osimertinib monotherapy, using the first‐order conditional estimation method with interaction (FOCE‐I). […] Parameter changes were tested with stepwise inclusion and backward elimination. A decrease of more than −3.84 ΔOFV (P < .05) was considered a significant improvement when a single parameter was added to nested models. For backward elimination, a stricter criterion of 6.63 ΔOFV (P < .01) was used when removing a parameter from the popPK model.[25] One‐compartment and two‐compartment models were tested to best describe the data. Exponential between subject variability (BSV) on the popPK parameters was explored in a step‐wise approach. Residual error was tested as an additional, proportional, and a combined error model.
Developed popPK models were evaluated based on successful minimization, change in objective function value (ΔOFV), numerical diagnostics, standard goodness of fit (GOF) plots, and conditional weighted residuals (CWRES) plots. The performance of the developed popPK models was assessed with prediction‐corrected visual predictive check (pcVPC) and normalized prediction distribution error (NPDE) plots.[27] For the final popPK model, the median parameter estimate and 95% confidence interval (CI) were obtained non‐parametric bootstrap procedure (n = 1000) and can be considered as an internal validation.[28], [29] Relative standard errors (RSE%) of estimated parameters were acceptable when <30%.[30] A condition number was considered acceptable if […].[30] Both η‐shrinkage and ε‐shrinkage were considered appropriate if <30%.[31]

[2] = cited from earlier work
[3] = cited from earlier work; remark: listed apart in the source

Row | SMILES | CL/F, Population Estimate (RSE%) [1] | V/F, Population Estimate (RSE%) [1] | Coefficient of variation (CV%) of the BSV on CL/F ([1]; in vivo) [%] | CL/F, Bootstrap Median [1] [L/h] | V/F, Bootstrap Median [1] [L] | Increase of osimertinib exposure (mean AUC0‐24h) by cobicistat ([2]; 11 patients with Cmin,SS ≤ 195 µg/L, noncompartmental analysis) [%] | Adverse events of cobicistat boosted osimertinib ([2]; 11 patients with low osimertinib exposure) | Increase in osimertinib exposure when combined with itraconazole [3] [%]
1 | C=CC(=O)Nc1cc(Nc2nccc(-c3cn(C)c4ccccc34)n2)c(OC)cc1N(C)CCN(C)C [osimertinib] | 19.0 (8.5%) L/h | 990 (29%) L | 21.5 | 19.0 | 966 |  |  | 
2 | C=CC(=O)Nc1cc(Nc2nccc(-c3c[nH]c4ccccc34)n2)c(OC)cc1N(C)CCN(C)C [AZ5104] | 47.3 (7.8%) L/h | 184 (48.5%) L |  | 46.3 | 181 |  |  | 
3 | CC(C)c1nc(CN(C)C(=O)N[C@@H](CCN2CCOCC2)C(=O)N[C@H](CC[C@H](Cc2ccccc2)NC(=O)OCc2cncs2)Cc2ccccc2)cs1 [cobicistat] |  |  |  |  |  | 50 | without any grade ≥3 adverse events (AEs) or new safety signals | 
4 | CCC(C)n1ncn(-c2ccc(N3CCN(c4ccc(OCC5COC(Cn6cncn6)(c6ccc(Cl)cc6Cl)O5)cc4)CC3)cc2)c1=O (stereo not drawn) [itraconazole] |  |  |  |  |  |  |  | 24
